One assay deals with HIS-TGFβR1 T204D (Homo sapiens (Human), UniProt P36897, T204D). Briefly: HTRF probe displacement assay, HIS-TGFβR1 T204D. The settings on record: 1 nM HIS-TGFβR1 T204D, 1 hour at room temperature, read-out: TGFBR1T204D IC50. The format is binding. The method, then: (§1) Compounds were dissolved at 10 mM in dimethylsulfoxide (DMSO) and evaluated at eleven concentrations. IC50 values were derived by non-linear regression analysis.

The target in another assay is HIS-TGFβR2 WT (Homo sapiens (Human), UniProt P37173). Briefly: HTRF probe displacement assay, HIS-TGFβR2 WT. The assay is classed as binding. The settings on record: 1 nM HIS-TGFβR2 WT, 1 hour at room temperature, read-out: TGFBR2WT IC50. As to the method:
as §1

Structures are written as SMILES.

The results in this text go back to patent US9981944B2, “GDF-8 inhibitors” (Rigel Pharmaceuticals, Inc., priority 2015, dated 2018).

Sequence of HIS-TGFβR1 T204D (P36897 34-503 T204D): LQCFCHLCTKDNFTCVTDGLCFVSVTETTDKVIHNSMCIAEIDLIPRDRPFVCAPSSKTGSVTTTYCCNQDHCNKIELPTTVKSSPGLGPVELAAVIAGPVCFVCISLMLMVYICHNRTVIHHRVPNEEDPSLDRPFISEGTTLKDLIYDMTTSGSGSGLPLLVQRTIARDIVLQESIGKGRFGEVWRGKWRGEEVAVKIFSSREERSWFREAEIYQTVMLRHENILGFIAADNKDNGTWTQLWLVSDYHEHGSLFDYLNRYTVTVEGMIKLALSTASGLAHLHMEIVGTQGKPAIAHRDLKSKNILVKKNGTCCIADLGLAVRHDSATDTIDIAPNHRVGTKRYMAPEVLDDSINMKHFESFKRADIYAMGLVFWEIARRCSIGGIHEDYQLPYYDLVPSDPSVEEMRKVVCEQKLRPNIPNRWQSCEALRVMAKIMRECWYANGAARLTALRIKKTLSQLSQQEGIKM
Sequence of HIS-TGFβR2 WT (P37173 23-567): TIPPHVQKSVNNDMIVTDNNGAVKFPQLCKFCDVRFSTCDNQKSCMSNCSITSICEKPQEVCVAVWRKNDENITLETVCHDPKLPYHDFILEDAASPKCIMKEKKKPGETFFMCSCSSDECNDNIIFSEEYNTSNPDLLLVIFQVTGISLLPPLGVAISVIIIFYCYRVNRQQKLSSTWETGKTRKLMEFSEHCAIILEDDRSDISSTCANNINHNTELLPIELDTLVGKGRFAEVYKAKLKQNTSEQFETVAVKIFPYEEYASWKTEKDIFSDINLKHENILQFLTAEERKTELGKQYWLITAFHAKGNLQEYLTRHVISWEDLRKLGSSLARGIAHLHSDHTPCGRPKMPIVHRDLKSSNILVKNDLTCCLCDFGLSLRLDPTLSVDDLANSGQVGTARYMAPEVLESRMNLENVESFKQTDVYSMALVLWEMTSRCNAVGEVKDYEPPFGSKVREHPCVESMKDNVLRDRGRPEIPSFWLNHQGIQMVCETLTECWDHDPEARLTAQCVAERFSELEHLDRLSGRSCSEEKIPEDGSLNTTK

`Cc1cccc(-c2nc(C(F)(F)F)ccc2-c2ccc3ncc(C#N)n3c2)n1` [Compound 89, 6-(6′-methyl-6-(trifluoromethyl)-[2,2′-bipyridin]-3-yl)imidazo[1,2-a]pyridine-3-carbonitrile]: the half-maximal inhibitory concentration (IC50) is 3360 nM at HIS-TGFβR1 T204D and > 15000 nM on HIS-TGFβR2 WT.

With `Nc1ncnc2ccc(-c3cccnc3-c3ccc(F)cn3)nc12` [Compound 104, 6-(5′-fluoro-[2,2′-bipyridin]-3-yl)pyrido[3,2-d]pyrimidin-4-amine], the half-maximal inhibitory concentration (IC50) on HIS-TGFβR1 T204D was 42 nM; on HIS-TGFβR2 WT it was > 15000 nM.

Consider `FC(F)(F)c1cccc(-c2ncccc2-c2ccn3nccc3n2)n1` [Compound 136, 5-(6′-(trifluoromethyl)-[2,2′-bipyridin]-3-yl)pyrazolo[1,5-a]pyrimidine], for which the values for the IC50 at HIS-TGFβR1 T204D and at HIS-TGFβR2 WT were 15 nM and > 15000 nM, respectively.

On to `O=C(NC1CC1)c1cnn2ccc(-c3cccnc3-c3cccc(C(F)(F)F)n3)nc12` [Compound 126, N-cyclopropyl-5-(6′-(trifluoromethyl)-[2,2′-bipyridin]-3-yl)pyrazolo[1,5-a]pyrimidine-3-carboxamide], for which the IC50 was 94 nM on HIS-TGFβR1 T204D and > 15000 nM on HIS-TGFβR2 WT.

In the case of `Cc1nc(-c2ncccc2-c2ccc3ncnc(N)c3n2)ccc1F` [Compound 103, 6-(5′-fluoro-6′-methyl-[2,2′-bipyridin]-3-yl)pyrido[3,2-d]pyrimidin-4-amine], the 50% inhibitory concentration (IC50) at HIS-TGFβR1 T204D is 4 nM; at HIS-TGFβR2 WT, > 15000 nM.

In the case of `Cc1cccc(-c2ncccc2-c2ccn3nccc3n2)n1` [Compound 138, 5-(6′-methyl-[2,2′-bipyridin]-3-yl)pyrazolo[1,5-a]pyrimidine], the results for the half-inhibitory concentration (IC50) on HIS-TGFβR1 T204D and on HIS-TGFβR2 WT were 5 nM and > 15000 nM, respectively.

In the case of `Nc1ncnc2ccc(-c3cccnc3-c3cccc(C4CC4)n3)nc12` [Compound 106, 6-(6′-cyclopropyl-[2,2′-bipyridin]-3-yl)pyrido[3,2-d]pyrimidin-4-amine], the figures for the 50% inhibitory concentration (IC50) on HIS-TGFβR1 T204D and at HIS-TGFβR2 WT were 4 nM and > 15000 nM, respectively.

Turning to `Cc1cccc(-c2ncccc2-c2ccc3ncc(C(=O)NC4COC4)n3n2)n1` [Compound 74, 6-(6′-methyl-[2,2′-bipyridin]-3-yl)-N-(oxetan-3-yl)imidazo[1,2-b]pyridazine-3-carboxamide], the IC50 was 108 nM at HIS-TGFβR1 T204D and > 15000 nM at HIS-TGFβR2 WT.

For the compound `N#Cc1cnc2ccc(-c3cccnc3-c3cc(F)ccn3)nn12` [Compound 59, 6-(4′-fluoro-[2,2′-bipyridin]-3-yl)imidazo[1,2-b]pyridazine-3-carbonitrile], the 50% inhibitory concentration (IC50) at HIS-TGFβR1 T204D is 918 nM; at HIS-TGFβR2 WT it was > 15000 nM.

`Cc1cccc(-c2ncccc2-c2ccn3ncc(C(=O)NC4CC4)c3n2)n1` [Compound 128, N-cyclopropyl-5-(6′-methyl-[2,2′-bipyridin]-3-yl)pyrazolo[1,5-a]pyrimidine-3-carboxamide]: the results for the 50% inhibitory concentration (IC50) on HIS-TGFβR1 T204D and at HIS-TGFβR2 WT were 33 nM and > 15000 nM, respectively.

Consider `CCOC(=O)c1cnn2ccc(-c3cccnc3-c3cccc(C(F)(F)F)n3)nc12` [Compound 123, ethyl 5-(6′-(trifluoromethyl)-[2,2′-bipyridin]-3-yl)pyrazolo[1,5-a]pyrimidine-3-carboxylate], for which the IC50 was 46 nM on HIS-TGFβR1 T204D and > 15000 nM at HIS-TGFβR2 WT.

`FC(F)(F)c1cccc(-c2ncccc2-c2ccc3nccnc3c2)n1` [Compound 114, 6-(6′-(trifluoromethyl)-[2,2′-bipyridin]-3-yl)quinoxaline]: the half-maximal inhibitory concentration (IC50) at HIS-TGFβR1 T204D is 16 nM; on HIS-TGFβR2 WT, > 15000 nM.

Turning to `Cc1nc(-c2ncccc2-c2ccn3ncc(C(=O)NC4COC4)c3n2)ccc1F` [Compound 133, 5-(5′-fluoro-6′-methyl-[2,2′-bipyridin]-3-yl)-N-(oxetan-3-yl)pyrazolo[1,5-a]pyrimidine-3-carboxamide], the half-maximal inhibitory concentration (IC50) at HIS-TGFβR1 T204D was 24 nM; on HIS-TGFβR2 WT it was > 15000 nM.

With `NC(=O)c1cnc2ccc(-c3cccnc3-c3cccc(C(F)(F)F)n3)cn12` [Compound 18, 6-(6′-(trifluoromethyl)-[2,2′-bipyridin]-3-yl)imidazo[1,2-a]pyridine-3-carboxamide], the IC50 was 1 nM at HIS-TGFβR1 T204D and > 15000 nM at HIS-TGFβR2 WT.

On to `Cc1cccc(-c2ncccc2-c2ccc3ncc(NC(=O)C(F)(F)F)n3c2)n1` [Compound 66, 2,2,2-trifluoro-N-(6-(6′-methyl-[2,2′-bipyridin]-3-yl)imidazo[1,2-a]pyridin-3-yl)acetamide], for which the IC50 at HIS-TGFβR1 T204D was 37 nM; on HIS-TGFβR2 WT it was > 15000 nM.

As to `Cc1nc(-c2ncccc2-c2ccn3nccc3n2)ccc1F` [Compound 137, 5-(5′-fluoro-6′-methyl-[2,2′-bipyridin]-3-yl)pyrazolo[1,5-a]pyrimidine], the IC50 at HIS-TGFβR1 T204D was 8 nM; on HIS-TGFβR2 WT it was > 15000 nM.

Take `Fc1ccc(-c2ncccc2-c2ccc3[nH]ncc3c2)nc1` [Compound 116, 5-(5′-fluoro-[2,2′-bipyridin]-3-yl)-1H-indazole]: the IC50 was 14 nM at HIS-TGFβR1 T204D and > 15000 nM at HIS-TGFβR2 WT.

As to `Cc1nc(-c2ncccc2-c2ccc3nc(C(N)=O)cn3c2)ccc1F` [Compound 78, 6-(5′-fluoro-6′-methyl-[2,2′-bipyridin]-3-yl)imidazo[1,2-a]pyridine-2-carboxamide], the half-inhibitory concentration (IC50) was 15000 nM at HIS-TGFβR1 T204D and > 15000 nM at HIS-TGFβR2 WT.

Take `COc1cccc(-c2ncccc2-c2ccc3ncc(C#N)n3c2)n1` [Compound 17, 6-(6′-methoxy-[2,2′-bipyridin]-3-yl)imidazo[1,2-a]pyridine-3-carbonitrile]: the results for the IC50 on HIS-TGFβR1 T204D and on HIS-TGFβR2 WT were 9 nM and > 15000 nM, respectively.

For the compound `Cc1cccc(-c2nccc(C(F)F)c2-c2ccc3ncc(C(N)=O)n3c2)n1` [Compound 94, 6-(4-(difluoromethyl)-6′-methyl-[2,2′-bipyridin]-3-yl)imidazo[1,2-a]pyridine-3-carboxamide], the concentration for half-maximal inhibition (IC50) is 15000 nM at HIS-TGFβR1 T204D and > 15000 nM on HIS-TGFβR2 WT.

Consider `Cc1nc(-c2ncccc2-c2ccc3ncnc(N)c3c2)ccc1F` [Compound 110], for which the figures for the IC50 on HIS-TGFβR1 T204D and at HIS-TGFβR2 WT were 2 nM and > 15000 nM, respectively.

For the compound `Cc1ccc(-c2ncccc2-c2ccc3ncc(C#N)n3n2)nc1` [Compound 55, 6-(5′-methyl-[2,2′-bipyridin]-3-yl)imidazo[1,2-b]pyridazine-3-carbonitrile], the half-maximal inhibitory concentration (IC50) was 5230 nM at HIS-TGFβR1 T204D and > 15000 nM at HIS-TGFβR2 WT.

Take `CC(=O)Nc1ccnc(-c2cccc(C)n2)c1-c1ccc2ncc(C(N)=O)n2c1` [Compound 102, 6-(4-acetamido-6′-methyl-[2,2′-bipyridin]-3-yl)imidazo[1,2-a]pyridine-3-carboxamide]: the half-inhibitory concentration (IC50) is 716 nM at HIS-TGFβR1 T204D and > 15000 nM at HIS-TGFβR2 WT.

Turning to `CNC(=O)c1cnn2ccc(-c3cccnc3-c3cccc(C)n3)nc12` [Compound 127, N-methyl-5-(6′-methyl-[2,2′-bipyridin]-3-yl)pyrazolo[1,5-a]pyrimidine-3-carboxamide], the IC50 on HIS-TGFβR1 T204D was 128 nM; on HIS-TGFβR2 WT it was > 15000 nM.

In the case of `N#Cc1cnc2ccc(-c3cccnc3-c3cccc(F)n3)nn12` [Compound 65, 6-(6′-fluoro-[2,2′-bipyridin]-3-yl)imidazo[1,2-b]pyridazine-3-carbonitrile], the figures for the IC50 on HIS-TGFβR1 T204D and on HIS-TGFβR2 WT were 397 nM and > 15000 nM, respectively.

With `Cc1nc(-c2ncccc2-c2ccc3ncc(C(N)=O)n3n2)ccc1F` [Compound 43, 6-(5′-fluoro-6′-methyl-[2,2′-bipyridin]-3-yl)imidazo[1,2-b]pyridazine-3-carboxamide], the half-maximal inhibitory concentration (IC50) is 17 nM at HIS-TGFβR1 T204D and > 15000 nM at HIS-TGFβR2 WT.

On to `Cc1nc(-c2ncccc2-c2ccn3ncc(C(=O)NC4CC4)c3n2)ccc1F` [Compound 132, N-cyclopropyl-5-(5′-fluoro-6′-methyl-[2,2′-bipyridin]-3-yl)pyrazolo[1,5-a]pyrimidine-3-carboxamide], for which the IC50 on HIS-TGFβR1 T204D was 36 nM; on HIS-TGFβR2 WT it was > 15000 nM.

As to `NC(=O)c1cnc2ccc(-c3cccnc3-c3cc(F)ccn3)nn12` [Compound 60, 6-(4′-fluoro-[2,2′-bipyridin]-3-yl)imidazo[1,2-b]pyridazine-3-carboxamide], the IC50 was 161 nM at HIS-TGFβR1 T204D and > 15000 nM at HIS-TGFβR2 WT.

For the compound `Nc1ncnc2ccc(-c3cccnc3-c3cccc(C(F)F)n3)nc12` [Compound 105, 6-(6′-(difluoromethyl)-[2,2′-bipyridin]-3-yl)pyrido[3,2-d]pyrimidin-4-amine], the half-inhibitory concentration (IC50) is 3 nM on HIS-TGFβR1 T204D and > 15000 nM at HIS-TGFβR2 WT.

For `Cc1nc(-c2ncccc2-c2ccn3ncc(C#N)c3n2)ccc1F` [Compound 122, 5-(5′-fluoro-6′-methyl-[2,2′-bipyridin]-3-yl)pyrazolo[1,5-a]pyrimidine-3-carbonitrile], the results for the IC50 on HIS-TGFβR1 T204D and on HIS-TGFβR2 WT were 242 nM and > 15000 nM, respectively.

On to `CNC(=O)c1cnn2ccc(-c3cccnc3-c3cccc(C(F)(F)F)n3)nc12` [Compound 125, N-methyl-5-(6′-(trifluoromethyl)-[2,2′-bipyridin]-3-yl)pyrazolo[1,5-a]pyrimidine-3-carboxamide], for which the figures for the IC50 at HIS-TGFβR1 T204D and at HIS-TGFβR2 WT were 339 nM and > 15000 nM, respectively.

For the compound `Cc1cccc(-c2ncccc2-c2ccc3ncc(C(=O)NCC(F)F)n3c2)n1` [Compound 68, N-(2,2-difluoroethyl)-6-(6′-methyl-[2,2′-bipyridin]-3-yl)imidazo[1,2-a]pyridine-3-carboxamide], the values for the IC50 on HIS-TGFβR1 T204D and on HIS-TGFβR2 WT were 4 nM and > 15000 nM, respectively.

As for `COC(=O)c1ccc(-c2ncccc2-c2ccc3ncc(C(N)=O)n3c2)nc1` [Compound 26, methyl 3′-(3-carbamoylimidazo[1,2-a]pyridin-6-yl)-[2,2′-bipyridine]-5-carboxylate], the values for the IC50 at HIS-TGFβR1 T204D and on HIS-TGFβR2 WT were 7650 nM and > 15000 nM, respectively.

As to `NC(=O)c1cnc2ccc(-c3cccnc3-c3cccc(C(F)F)n3)nn12` [Compound 52, 6-(6′-(difluoromethyl)-[2,2′-bipyridin]-3-yl)imidazo[1,2-b]pyridazine-3-carboxamide], the half-inhibitory concentration (IC50) at HIS-TGFβR1 T204D was 30 nM; on HIS-TGFβR2 WT, > 15000 nM.

Consider `COc1cccc(-c2ncccc2-c2ccc3ncc(C#N)n3n2)n1` [Compound 50, 6-(6′-methoxy-[2,2′-bipyridin]-3-yl)imidazo[1,2-b]pyridazine-3-carbonitrile], for which the IC50 on HIS-TGFβR1 T204D was 43 nM; on HIS-TGFβR2 WT, > 15000 nM.
